According to patent US20260028326A1, “COMPOUND BASED ON ISOINDOLINE-SUBSTITUTED GLUTARIMIDE BACKBONE AND USE THEREOF” (GLUETACS THERAPEUTICS (SHANGHAI) CO., LTD., priority 2022, published 2026):

target: human Cereblon WT GST-tagged protein (Homo sapiens (Human), UniProt Q96SW2); test: CRBN-binding affinity, HTRF (CEREBLON BINDING kit)
Procedure: The CEREBLON BINDING kits (specification: 10,000 tests; product number: Catalog #64BDCRBNPEH; CISBIO company) was used to determine the CRBN binding ability of the compounds to be tested through a HTRF method (homogeneous time-resolved fluorescence). The specific methods are as follows: • 1. […] Then, 2.5 μL of human Cereblon WT GST-tagged protein solution was added to each well. Finally, 5 μL of the thoroughly mixed Thalidomide-Re reagent and GST Eu antibody working solution were added to each of the aforementioned wells. […] The blank control wells were sequentially added with 2.5 μL of diluent #9 (1×) solution, 2.5 μL of PROTAC binding buffer, and 5 μL of thoroughly mixed Thalidomide-Re reagent and GST Eu antibody working solution. • 4.
The corresponding CRBN binding inhibition rate was calculated using the following method: […]

human Cereblon WT GST-tagged protein, sequence (Q96SW2 whole entry): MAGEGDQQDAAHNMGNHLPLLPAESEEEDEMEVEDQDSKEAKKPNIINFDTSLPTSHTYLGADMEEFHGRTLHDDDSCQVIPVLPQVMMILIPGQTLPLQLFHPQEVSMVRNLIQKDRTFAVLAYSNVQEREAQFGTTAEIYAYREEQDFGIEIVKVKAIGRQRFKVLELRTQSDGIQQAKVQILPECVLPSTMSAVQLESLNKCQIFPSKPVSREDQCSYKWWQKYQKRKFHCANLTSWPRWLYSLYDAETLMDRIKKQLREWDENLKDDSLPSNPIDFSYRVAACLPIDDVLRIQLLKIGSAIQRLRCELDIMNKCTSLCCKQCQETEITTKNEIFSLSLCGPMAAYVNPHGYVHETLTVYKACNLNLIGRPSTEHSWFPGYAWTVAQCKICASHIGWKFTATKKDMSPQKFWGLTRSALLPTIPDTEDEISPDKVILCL

How did the IC50 turn out when `CC1(C)CCC(CN2CC(O)(C(O)c3ccc4c(c3)CN(C3CCC(=O)NC3=O)C4=O)C2)=C(c2ccc(Cl)cc2)C1` (stereo not shown) [GT-05427, 3-(5-((1-((4′-chloro-5,5-dimethyl-3,4,5,6-tetrahydro-[1,1′-biphenyl]-2-yl)methyl)-3-hydroxyazetidin-3-yl)(hydroxy)methyl)-1-oxoisoindolin-2-yl)piperidine-2,6-dione] was run?
The IC50 was 950 nM.

Which IC50 does the source give for `CC1(C)CCC(CN2C3CCC2CN(c2ccc4c(c2)CN(C2CCC(=O)NC2=O)C4=O)C3)=C(c2ccc(F)cc2)C1` (stereo not shown) [GT-05500, 3-(5-(8-((4′-fluoro-5,5-dimethyl-3,4,5,6-tetrahydro-[1,1′-biphenyl]-2-yl)methyl)-3,8-diazabicyclo[3.2.1]octan-3-yl)-1-oxoisoindolin-2-yl)piperidine-2,6-dione] here?
The IC50 was 1870 nM.

`CC1(C)CCC(CN2CCC(Cc3ccc4c(c3)CN(C3CCC(=O)NC3=O)C4=O)CC2)=C(c2ccc(Cl)cc2)C1` (stereo not shown) [GT-03368, 3-(5-((1-((4′-chloro-5,5-dimethyl-3,4,5,6-tetrahydro-[1,1′-biphenyl]-2-yl)methyl)piperidin-4-yl)methyl)-1-oxoisoindolin-2-yl)piperidine-2,6-dione] was tested. Which IC50 did it give?
Its IC50 is 1380 nM.

With `O=C1CCC(N2Cc3c(C(=O)N4CCN(Cc5ccccc5-c5ccc(Cl)cc5)CC4)cccc3C2=O)C(=O)N1` (stereo not shown) [GT-05486, 3-(4-(4-((4′-chloro-[1,1′-biphenyl]-2-yl)methyl)piperazine-1-carbonyl)-1-oxoisoindolin-2-yl)piperidine-2,6-dione] as the compound, how does the IC50 read?
The IC50 was 1560 nM.

`CC1(C)CCC(C(=O)N2CC3CN(Cc4ccc5c(c4)CN(C4CCC(=O)NC4=O)C5=O)CC3C2)=C(c2ccc(F)cc2)C1` (stereo not shown) [GT-05405, 3-(5-((5-(4′-fluoro-5,5-dimethyl-3,4,5,6-tetrahydro-[1,1′-biphenyl]-2-carbonyl)hexahydropyrrolo[3,4-c]pyrrol-2(1H)-yl)methyl)-1-oxoisoindolin-2-yl)piperidine-2,6-dione] was tested. Which IC50 did it give?
Its IC50 is 500 nM.

`CC1(C)CCC(CN2CC3CCC(C2)N3C(=O)c2ccc3c(c2)CN(C2CCC(=O)NC2=O)C3=O)=C(c2ccc(F)cc2)C1` (stereo not shown) [GT-05451, 3-(5-(3-((4′-fluoro-5,5-dimethyl-3,4,5,6-tetrahydro-[1,1′-biphenyl]-2-yl)methyl)-3,8-diazabicyclo[3.2.1]octane-8-carbonyl)-1-oxoisoindolin-2-yl)piperidine-2,6-dione] was tested. Which IC50 did it give?
Its IC50 is 1160 nM.

With `O=C1CCC(N2Cc3cc(C(=O)N4C5CC4CN(Cc4ccccc4-c4ccc(Cl)cc4)C5)ccc3C2=O)C(=O)N1` (stereo not shown) [GT-05643, 3-(5-(3-((4′-chloro-[1,1′-biphenyl]-2-yl)methyl)-3,6-diazabicyclo[3.1.1]heptane-6-carbonyl)-1-oxoisoindolin-2-yl)piperidine-2,6-dione] as the compound, how does the IC50 read?
The IC50 was 590 nM.

Which IC50 does the source give for `O=C1CCC(N2Cc3cc(CN4C5CC4CN(C(=O)c4ccccc4-c4ccc(Cl)cc4)C5)cc(F)c3C2=O)C(=O)N1` (stereo not shown) [GT-05668, 3-(5-((3-(4′-chloro-[1,1′-biphenyl]-2-carbonyl)-3,6-diazabicyclo[3.1.1]heptan-6-yl)methyl)-7-fluoro-1-oxoisoindolin-2-yl)piperidine-2,6-dione] here?
Its IC50 is 650 nM.

How did the IC50 turn out when `O=C1CCC(N2Cc3cc(-c4ccc(CN5CCN(C(=O)c6ccccc6-c6ccc(Cl)cc6)CC5)cc4)ccc3C2=O)C(=O)N1` (stereo not shown) [GT-05874, 3-(5-(4-((4-(4′-chloro-[1,1′-biphenyl]-2-carbonyl)piperazin-1-yl)methyl)phenyl)-1-oxoisoindolin-2-yl)piperidine-2,6-dione] was run?
The IC50 was 440 nM.

With `CC1(C)CCC(C(=O)N2C3CCC2CN(c2ccc4c(c2)CN(C2CCC(=O)NC2=O)C4=O)C3)=C(c2ccc(F)cc2)C1` (stereo not shown) [GT-05491, 3-(5-(8-(4′-fluoro-5,5-dimethyl-3,4,5,6-tetrahydro-[1,1′-biphenyl]-2-carbonyl)-3,8-diazabicyclo[3.2.1]octan-3-yl)-1-oxoisoindolin-2-yl)piperidine-2,6-dione] as the compound, how does the IC50 read?
Its IC50 is 970 nM.

`CC1(C)CCC(CN2CC(Cc3ccc4c(c3)CN(C3CCC(=O)NC3=O)C4=O)C2)=C(c2ccc(Cl)cc2)C1` (stereo not shown) [GT-05428, 3-(5-((1-((4′-chloro-5,5-dimethyl-3,4,5,6-tetrahydro-[1,1′-biphenyl]-2-yl)methyl)azetidin-3-yl)methyl)-1-oxoisoindolin-2-yl)piperidine-2,6-dione] was tested. Which IC50 did it give?
Its IC50 is 1080 nM.

For `CC1(C)CCC(CN2CC3CCC2CN3c2ccc3c(c2)C(=O)N(C2CCC(=O)NC2=O)C3=O)=C(c2ccc(F)cc2)C1` (stereo not shown) [GT-05388, 2-(2,6-dioxopiperidin-3-yl)-5-(5-((4′-fluoro-5,5-dimethyl-3,4,5,6-tetrahydro-[1,1′-biphenyl]-2-yl)methyl)-2,5-diazabicyclo[2.2.2]octan-2-yl)isoindoline-1,3-dione], which IC50 is on record?
The IC50 was 410 nM.

Which IC50 does the source give for `O=C1CCC(N2Cc3cc(CN4CC5CC(C4)N5C(=O)c4ccccc4-c4ccc(Cl)cc4)ccc3C2=O)C(=O)N1` (stereo not shown) [GT-05669, 3-(5-((6-(4′-chloro-[1,1′-biphenyl]-2-carbonyl)-3,6-diazabicyclo[3.1.1]heptan-3-yl)methyl)-1-oxoisoindolin-2-yl)piperidine-2,6-dione] here?
The IC50 was 630 nM.

How did the IC50 turn out when `O=C1CCC(N2Cc3cc(CCCN4CCN(Cc5ccccc5-c5ccc(Cl)cc5)CC4)ccc3C2=O)C(=O)N1` (stereo not shown) [GT-05893, 3-(5-(3-(4-((4′-chloro-[1,1′-biphenyl]-2-yl)methyl)piperazin-1-yl)propyl)-1-oxoisoindolin-2-yl)piperidine-2,6-dione] was run?
The IC50 was 1150 nM.

How did the IC50 turn out when `CC1(C)CCC(CN2CC3CN(Cc4ccc5c(c4)CN(C4CCC(=O)NC4=O)C5=O)CC3C2)=C(c2ccc(F)cc2)C1` (stereo not shown) [GT-05398, 3-(5-((5-((4′-fluoro-5,5-dimethyl-3,4,5,6-tetrahydro-[1,1′-biphenyl]-2-yl)methyl)hexahydropyrrolo[3,4-c]pyrrol-2(1H)-yl)methyl)-1-oxoisoindolin-2-yl)piperidine-2,6-dione] was run?
The IC50 was 1050 nM.

For `CC1(C)CCC(CN2CC3CCC(C2)N3c2ccc3c(c2)CN(C2CCC(=O)NC2=O)C3=O)=C(c2ccc(F)cc2)C1` (stereo not shown) [GT-05498, 3-(5-(3-((4′-fluoro-5,5-dimethyl-3,4,5,6-tetrahydro-[1,1′-biphenyl]-2-yl)methyl)-3,8-diazabicyclo[3.2.1]octan-8-yl)-1-oxoisoindolin-2-yl)piperidine-2,6-dione], which IC50 is on record?
Its IC50 is 1520 nM.

For `O=C1CCC(N2Cc3ccc(CN4CCN(CC5=C(c6ccc(F)cc6)CCCC5)CC4)cc3C2=O)C(=O)N1` (stereo not shown) [GT-05465, 3-(6-((4-((4′-fluoro-3,4,5,6-tetrahydro-[1,1′-biphenyl]-2-yl)methyl)piperazin-1-yl)methyl)-1-oxoisoindolin-2-yl)piperidine-2,6-dione], which IC50 is on record?
The IC50 was 830 nM.

`O=C1CCC(N2Cc3cc(CN4CCN(C(=O)C5=C(c6ccc(F)cc6)CCCC5)CC4)ccc3C2=O)C(=O)N1` (stereo not shown) [GT-04170, 3-(5-((4-(4′-fluoro-3,4,5,6-tetrahydro-[1,1′-biphenyl]-2-carbonyl)piperazin-1-yl)methyl)-1-oxoisoindolin-2-yl)piperidine-2,6-dione] was tested. Which IC50 did it give?
Its IC50 is 1010 nM.

Which IC50 does the source give for `O=C1CCC(N2Cc3cc(CN4CCC(Nc5ccccc5-c5ccc(Cl)cc5)CC4)ccc3C2=O)C(=O)N1` (stereo not shown) [GT-03991, 3-(5-((4-((4′-chloro-[1,1′-biphenyl]-2-yl)amino)piperidin-1-yl)methyl)-1-oxoisoindolin-2-yl)piperidine-2,6-dione] here?
Its IC50 is 470 nM.

Which IC50 does the source give for `CC1(C)CCC(CN2C3CC2CN(C(=O)c2ccc4c(c2)CN(C2CCC(=O)NC2=O)C4=O)C3)=C(c2ccc(Cl)cc2)C1` (stereo not shown) [GT-05457, 3-(5-(6-((4′-chloro-5,5-dimethyl-3,4,5,6-tetrahydro-[1,1′-biphenyl]-2-yl)methyl)-3,6-diazabicyclo[3.1.1]heptane-3-carbonyl)-1-oxoisoindolin-2-yl)piperidine-2,6-dione] here?
The IC50 was 1260 nM.

`CC1(C)CCC(C(=O)N2CC3CC(C2)N3Cc2ccc3c(c2)CN(C2CCC(=O)NC2=O)C3=O)=C(c2ccc(F)cc2)C1` (stereo not shown) [GT-05514, 3-(5-((3-(4′-fluoro-5,5-dimethyl-3,4,5,6-tetrahydro-[1,1′-biphenyl]-2-carbonyl)-3,6-diazabicyclo[3.1.1]heptan-6-yl)methyl)-1-oxoisoindolin-2-yl)piperidine-2,6-dione] was tested. Which IC50 did it give?
Its IC50 is 740 nM.

Which IC50 does the source give for `CC1(C)CCC(CN2C3CC2CN(C(=O)c2ccc4c(c2)CN(C2CCC(=O)NC2=O)C4=O)C3)=C(c2ccc(F)cc2)C1` (stereo not shown) [GT-05671, 3-(5-(6-((4′-fluoro-5,5-dimethyl-3,4,5,6-tetrahydro-[1,1′-biphenyl]-2-yl)methyl)-3,6-diazabicyclo[3.1.1]heptane-3-carbonyl)-1-oxoisoindolin-2-yl)piperidine-2,6-dione] here?
Its IC50 is 300 nM.

With `CC1(C)CCC(C(=O)N2CCN(Cc3cccc4c3CN(C3CCC(=O)NC3=O)C4=O)CC2)=C(c2ccc(Cl)cc2)C1` (stereo not shown) [GT-05528, 3-(4-((4-(4′-chloro-5,5-dimethyl-3,4,5,6-tetrahydro-[1,1′-biphenyl]-2-carbonyl)piperazin-1-yl)methyl)-1-oxoisoindolin-2-yl)piperidine-2,6-dione] as the compound, how does the IC50 read?
Its IC50 is 1930 nM.

Which IC50 does the source give for `CC1(C)CCC(CN2CCN(C(=O)c3ccc4c(c3)CN(C3CCC(=O)NC3=O)C4=O)CC2)=C(c2ccc(Cl)cc2)C1` (stereo not shown) [GT-05445, 3-(5-(4-((4′-chloro-5,5-dimethyl-3,4,5,6-tetrahydro-[1,1′-biphenyl]-2-yl)methyl)piperazine-1-carbonyl)-1-oxoisoindolin-2-yl)piperidine-2,6-dione] here?
The IC50 was 1910 nM.

For `CC1(C)CCC(CN2CCCN(C(=O)c3ccc4c(c3)CN(C3CCC(=O)NC3=O)C4=O)CC2)=C(c2ccc(F)cc2)C1` (stereo not shown) [GT-05505, 3-(5-(4-((4′-fluoro-5,5-dimethyl-3,4,5,6-tetrahydro-[1,1′-biphenyl]-2-yl)methyl)-1,4-diazepane-1-carbonyl)-1-oxoisoindolin-2-yl)piperidine-2,6-dione], which IC50 is on record?
Its IC50 is 810 nM.
